The source made the active and inactive calls. No cut-off for these calls is given here.
What was measured:
[1] = target: Estrogen receptor (Homo sapiens) (UniProt Q92731+P03372); assay: Displacement of [3H]estradiol from estrogen receptor; assay type: protein assay; details: tested as the Zn salt or complex
EMT6 [2] = assay: In vitro phototoxicity in EMT-6 cells at 1 uM after 6 hr MTT assay; assay type: functional, Mus musculus
EMT6 [3] = assay: In vitro phototoxicity in EMT-6 cells at 1 uM after 24 hr r MTT assay; assay type: functional, Mus musculus
EMT6 [4] = assay: In vitro phototoxicity in EMT-6 cells at 1 uM after 6 hr MTT assay; Not active; assay type: functional, cell-based; details: Mus musculus, tested as the Zn salt or complex
EMT6 [5] = assay: In vitro phototoxicity in EMT-6 cells at 1 uM after 24 hr r MTT assay; Not active; assay type: functional, cell-based; details: Mus musculus, tested as the Zn salt or complex

C[C@]12CC[C@@H]3c4ccc(O)cc4CC[C@H]3[C@@H]1CC[C@]2(O)C#Cc1cccc2cc3c(cc12)-c1nc-3nc2[nH]c(nc3nc(nc4[nH]c(n1)c1ccc(S(=O)(=O)[O-])cc41)-c1ccc(S(=O)(=O)[O-])cc1-3)c1cc(S(=O)(=O)[O-])ccc21.[Na+].[Na+].[Na+].[Zn]
relative binding affinity (RBA) [1]: 1.24 | LD90 (EMT6 [2]): 12 J cm**-2 | LD90 (EMT6 [3]): 3 J cm**-2

CCCCc1ccc2c(c1)-c1nc-2nc2[nH]c(nc3nc(nc4[nH]c(n1)c1ccc(CCCC)cc41)-c1ccc(C#CC#Cc4cccc([C@@]5(O)CC[C@H]6[C@@H]7CCc8cc(O)ccc8[C@H]7CC[C@@]65C)c4)cc1-3)c1ccc(CCCC)cc21
relative binding affinity (RBA) [1]: 8.54 | LD90 (EMT6 [4]): inactive | LD90 (EMT6 [5]): inactive

CCCCc1ccc2c(c1)-c1nc-2nc2[nH]c(nc3nc(nc4[nH]c(n1)c1ccc(CCCC)cc41)-c1cccc(C#C[C@@]4(O)CC[C@H]5[C@@H]6CCc7cc(O)ccc7[C@H]6CC[C@@]54C)c1-3)c1ccc(CCCC)cc21
relative binding affinity (RBA) [1]: 12.9 | LD90 (EMT6 [4]): inactive | LD90 (EMT6 [5]): inactive

C[C@]12CC[C@@H]3c4ccc(O)cc4CC[C@H]3[C@@H]1CC[C@]2(O)CCCCC#CC#Cc1cccc2c1-c1nc-2nc2[nH]c(nc3nc(nc4[nH]c(n1)c1ccc(S(=O)(=O)[O-])cc41)-c1ccc(S(=O)(=O)[O-])cc1-3)c1ccc(S(=O)(=O)[O-])cc21.[Na+].[Na+].[Na+].[Zn]
relative binding affinity (RBA) [1]: 0.56 | LD90 (EMT6 [2]): 12 J cm**-2 | LD90 (EMT6 [3]): 4.3 J cm**-2

CCCCc1ccc2cc3c(cc2c1)-c1nc-3nc2[nH]c(nc3nc(nc4[nH]c(n1)c1cc5ccc(CCCC)cc5cc41)-c1ccc(C#C[C@@]4(O)CC[C@H]5[C@@H]6CCc7cc(O)ccc7[C@H]6CC[C@@]54C)cc1-3)c1cc3ccc(CCCC)cc3cc21
relative binding affinity (RBA) [1]: 10.4 | LD90 (EMT6 [4]): inactive | LD90 (EMT6 [5]): inactive

C[C@]12CC[C@@H]3c4ccc(O)cc4CC[C@H]3[C@@H]1CC[C@]2(O)C#Cc1ccc2c(c1)-c1nc-2nc2[nH]c(nc3nc(nc4[nH]c(n1)c1ccc(S(=O)(=O)[O-])cc41)-c1ccc(S(=O)(=O)[O-])cc1-3)c1cc(S(=O)(=O)[O-])ccc21.[Na+].[Na+].[Na+].[Zn]
relative binding affinity (RBA) [1]: 1.64 | LD90 (EMT6 [2]): 7 J cm**-2 | LD90 (EMT6 [3]): 5.1 J cm**-2

CCCCc1ccc2c(c1)-c1nc-2nc2[nH]c(nc3nc(nc4[nH]c(n1)c1ccc(CCCC)cc41)-c1ccc(C#CC#CCCCC[C@@]4(O)CC[C@H]5[C@@H]6CCc7cc(O)ccc7[C@H]6CC[C@@]54C)cc1-3)c1ccc(CCCC)cc21
relative binding affinity (RBA) [1]: 3.08 | LD90 (EMT6 [4]): inactive | LD90 (EMT6 [5]): inactive

C[C@]12CC[C@@H]3c4ccc(O)cc4CC[C@H]3[C@@H]1CC[C@]2(O)c1ccc(C#CC#Cc2ccc3c(c2)-c2nc-3nc3[nH]c(nc4nc(nc5[nH]c(n2)c2ccc(S(=O)(=O)[O-])cc52)-c2ccc(S(=O)(=O)[O-])cc2-4)c2ccc(S(=O)(=O)[O-])cc32)cc1.[Na+].[Na+].[Na+].[Zn]
relative binding affinity (RBA) [1]: 1.22 | LD90 (EMT6 [2]): 10.4 J cm**-2 | LD90 (EMT6 [3]): 5.3 J cm**-2

C[C@]12CC[C@@H]3c4ccc(O)cc4CC[C@H]3[C@@H]1CC[C@]2(O)CCCCC#CC#Cc1ccc2c(c1)-c1nc-2nc2[nH]c(nc3nc(nc4[nH]c(n1)c1ccc(S(=O)(=O)[O-])cc41)-c1ccc(S(=O)(=O)[O-])cc1-3)c1ccc(S(=O)(=O)[O-])cc21.[Na+].[Na+].[Na+].[Zn]
relative binding affinity (RBA) [1]: 1.26 | LD90 (EMT6 [2]): 7.3 J cm**-2 | LD90 (EMT6 [3]): 2.9 J cm**-2

CCCCc1ccc2c(c1)-c1nc-2nc2[nH]c(nc3nc(nc4[nH]c(n1)c1ccc(CCCC)cc41)-c1ccc(C#C[C@@]4(O)CC[C@H]5[C@@H]6CCc7cc(O)ccc7[C@H]6CC[C@@]54C)cc1-3)c1ccc(CCCC)cc21
relative binding affinity (RBA) [1]: 1.35 | LD90 (EMT6 [4]): inactive | LD90 (EMT6 [5]): inactive

C[C@]12CC[C@@H]3c4ccc(O)cc4CC[C@H]3[C@@H]1CC[C@]2(O)c1cccc(C#CC#Cc2ccc3c(c2)-c2nc-3nc3[nH]c(nc4nc(nc5[nH]c(n2)c2ccc(S(=O)(=O)[O-])cc52)-c2ccc(S(=O)(=O)[O-])cc2-4)c2ccc(S(=O)(=O)[O-])cc32)c1.[Na+].[Na+].[Na+].[Zn]
relative binding affinity (RBA) [1]: 0.3 | LD90 (EMT6 [2]): 10.4 J cm**-2 | LD90 (EMT6 [3]): 4 J cm**-2

— ChEMBL document CHEMBL1136680, “Synthesis and biological activities of phthalocyanine-estradiol conjugates” (2003)
